Reference: patent US20080051429A1, “USE OF 4-AMINO-PIPERIDINES FOR TREATING SLEEP DISORDERS” (priority 2006, published 2008)

Assays:
m1 = target: T1, m1 (Homo sapiens, UniProt P11229); assay: R-SAT broad profiling; assay type: cell-based; settings: agonist; read-out: pEC50 or pIC50 (converted)
T1 construct: expressed in transfected cells; host or cells: NIH3T3
T1 sequence (P11229 1-460): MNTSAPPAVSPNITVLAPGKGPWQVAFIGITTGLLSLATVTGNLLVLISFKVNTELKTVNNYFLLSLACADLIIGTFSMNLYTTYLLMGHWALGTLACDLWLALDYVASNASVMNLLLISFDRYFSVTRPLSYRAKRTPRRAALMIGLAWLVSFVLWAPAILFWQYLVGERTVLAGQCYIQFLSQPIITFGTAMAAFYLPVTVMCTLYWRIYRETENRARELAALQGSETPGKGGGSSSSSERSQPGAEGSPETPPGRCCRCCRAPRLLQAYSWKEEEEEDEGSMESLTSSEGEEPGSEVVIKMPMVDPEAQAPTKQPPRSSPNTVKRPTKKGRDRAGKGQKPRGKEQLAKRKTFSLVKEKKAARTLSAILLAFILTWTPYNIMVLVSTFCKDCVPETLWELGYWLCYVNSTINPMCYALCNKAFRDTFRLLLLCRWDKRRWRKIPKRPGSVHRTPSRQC
Description: (§1) The functional receptor assay, Receptor Selection and Amplification Technology (R-SAT), was used (with minor modifications from that previously described U.S. Pat. No. 5,707,798) to screen compounds for efficacy at the 5-HT2A receptor. Briefly, NIH3T3 cells were grown in 96 well tissue culture plates to 70-80% confluence. Cells were transfected for 12-16 hours with plasmid DNAs using superfect (Qiagen Inc.) as per manufacture's protocols. R-SAT's were generally performed with 50 ng/well of receptor and 20 ng/well of Beta-galactosidase plasmid DNA. All receptor and G-protein constructs used were in the pSI mammalian expression vector (Promega Inc) as described in U.S. Pat. No. 5,707,798. The 5HT2A receptor gene was amplified by nested PCR from brain cDNA using the oligodeoxynucleotides based on the published sequence (see Saltzman et. al. Biochem. Biophys. Res. Comm. 181:1469-78 (1991)). Large-scale transfections, cells were transfected for 12-16 hours, then trypsinized and frozen in DMSO. Frozen cells were later thawed, plated at 10,000-40,000 cells per well of a 96 well plate that contained drug. With both methods, cells were then grown in a humidified atmosphere with 5% ambient CO2 for five days. Media was then removed from the plates and marker gene activity was measured by the addition of the beta-galactosidase substrate ONPG (in PBS with 5% NP-40). The resulting colorimetric reaction was measured in a spectrophotometric plate reader (Titertek Inc.)at […]. All data were analyzed using the computer program XLFit (IDBSm). Efficacy is the percent maximal repression compared to repression by a control compound (ritanserin in the case of 5HT2A). pIC50 is the negative of the log(IC50), where IC50 is the calculated concentration in Molar that produces 50% maximal repression.
(§2) The R-SAT assay (described above in example 289) was used to investigate the selectivity of 4-(4-Fluoro-benzyl)-3-(4-isobutoxy-benzyl)-8-methyl-1-oxa-3,8-diaza-spiro[4.5]decan-2-one.

m4 = target: T2, m4 (Homo sapiens, UniProt P08173); assay: R-SAT broad profiling; assay type: cell-based; settings: agonist; read-out: pEC50 or pIC50 (converted)
T2 construct: expressed in transfected cells; host or cells: NIH3T3
T2 sequence (P08173 1-479): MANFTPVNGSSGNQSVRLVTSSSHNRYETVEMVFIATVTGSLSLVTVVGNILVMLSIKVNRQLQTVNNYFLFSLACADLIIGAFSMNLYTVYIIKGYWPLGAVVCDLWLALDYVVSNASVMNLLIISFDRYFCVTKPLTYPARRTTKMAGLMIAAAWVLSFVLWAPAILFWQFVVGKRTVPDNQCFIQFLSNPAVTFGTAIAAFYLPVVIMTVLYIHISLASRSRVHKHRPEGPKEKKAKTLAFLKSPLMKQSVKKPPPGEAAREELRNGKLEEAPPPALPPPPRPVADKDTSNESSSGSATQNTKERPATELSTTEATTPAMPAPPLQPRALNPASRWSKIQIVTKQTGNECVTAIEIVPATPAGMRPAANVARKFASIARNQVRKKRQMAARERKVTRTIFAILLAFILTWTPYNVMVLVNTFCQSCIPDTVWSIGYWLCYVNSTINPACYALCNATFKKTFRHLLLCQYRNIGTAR
Description: as §1, §2

**Q.** `CC(C)COc1ccc(CN2C(=O)OC3(CCN(C)CC3)C2Cc2ccc(F)cc2)cc1.Cl` (racemic) [Example 69NLS75, 4-(4-Fluorobenzyl)-3-(4-isobutoxybenzyl)-8-methyl-1-oxa-3,8-diazaspiro[4.5]decan-2-one, hydrochloride] was tested. Which EC50 (m1) did it give?
**A.** > 3.16 µM

**Q.** What about the EC50 (m4) of the same compound?
**A.** > 3.16 µM
